This is an account of results in paper PMC4994518 (Journal of medicinal chemistry, 2010).

Usually inhibition stands for the change of the read-out against control, counted positive when it falls. Broadly, the IC50 is the concentration that inhibits the measured activity by half.

The structures appear in SMILES notation.

One test concerns the target Human recombinant PDE 5A (Homo sapiens, UniProt O76074). Kind of test: Phosphodiesterase assay. It counts as biochemical. The settings on record: for % PDE 5 inhibition at 10 μM: recombinant human PDE5, 10 μM, duplicate values.
Test [1] concerns MDA-MB-231 breast tumor cell line. Nature of the test: Growth inhibition of MDA-MB-231 breast tumor cell line. It counts as cell-based, human. To be noted: for inhibition at 10 µM: Homo sapiens, MDA-MB-231, read-out: % growth inhibition at 10 μM.

As for `COC(=O)[C@@H]1Cc2c([nH]c3ccccc23)[C@H](c2c(Cl)cccc2Cl)N1` [Compound 10, (1S,3S)Methyl-1-(2,6-dichlorophenyl)-2,3,4,9-tetrahydro-1H-β-carboline-3-carboxylate], on Human recombinant PDE 5A, the “% PDE 5 inhibition at 10 μM” value is “inactive”.
Turning to `COC(=O)[C@H]1Cc2c([nH]c3ccccc23)[C@@H](c2ccc(Cl)cc2Cl)N1C(=O)CCl` [Compound 31, (1R,3R)Methyl 1-(2,4-Dichlorophenyl)-2-(2-chloroacetyl)-2,3,4,9-tetrahydro-1H-β-carboline-3-carboxylate], the inhibition at 10 µM in test [1] was 98%.
In the case of `CCN1C(=O)[C@@H]2Cc3c([nH]c4ccccc34)[C@@H](c3ccc(Cl)cc3Cl)N2C1=O` [Compound 14, (5R,11aS) 5-(2,4-Dichlorophenyl)-2-ethyl-5,6,11,11a-tetrahydro-1H-imidazo [1′,5′:1,6] pyrido[3,4-b]indole-1,3(2H)-dione], at Human recombinant PDE 5A (IC50 of PDE11A (cGMP)/IC50 of PDE5A (cGMP)), the selectivity index was over 200.
With `COC(=O)[C@H]1Cc2c([nH]c3ccccc23)[C@H](c2ccc(Cl)c(Cl)c2)N1` [Compound 6, (1S,3R)Methyl-1-(3,4-dichlorophenyl)-2,3,4,9-tetrahydro-1H-β-carboline-3-carboxylate], in test [1] (read-out: growth inhibition IC50 (μM) and CI at p < 0.05, MDA-MB-231, at least 8 concentrations, quadruple replicates, CI in brackets), the IC50 is under 10 µM.
As to `COC(=O)[C@H]1Cc2c([nH]c3ccccc23)[C@H](c2ccc(Cl)cc2Cl)N1C(=O)CCl` [Compound 32, (1S,3R)Methyl 1-(2,4-Dichlorophenyl)-2-(2-chloroacetyl)-2,3,4,9-tetrahydro-1H-β-carboline-3-carboxylate], the inhibition at 10 µM in test [1] stood at 98%. Besides, the “growth inhibitory potency relative to 31” value in test [1] (MDA-MB-231) is listed as about 10 times.
As to `COC(=O)[C@H]1Cc2c([nH]c3ccccc23)[C@@H](c2c(Cl)cccc2Cl)N1` [Compound 9, (1R,3R)Methyl-1-(2,6-dichlorophenyl)-2,3,4,9-tetrahydro-1H-β-carboline-3 carboxylate], the “% PDE 5 inhibition at 10 μM” value at Human recombinant PDE 5A is “inactive”.
